Measurements taken from patent US20240374535A1, “COMPOSITIONS AND METHODS FOR TREATING BIOFILM DISORDERS AND INFECTIONS” (AHV International B.V., priority 2021, published 2024).

Assays:
[1] = system: Staphylococcus epidermis ATCC 35984; assay: MIC assay (planktonic growth inhibition, OD600); type: cell-based, S. epidermidis; conditions: 24 h at 37° C.
Protocol: (§1) The exact weighed amount was noted and the volume of solvent to reach a 80 mM dilution calculated. Half of the volume was added first, by adding Tween 80. In a second step, the other half of the volume DMSO was added and the closed tube inverted 5-10 times and then vortexed very thoroughly for at least 30 seconds. If after this procedure unsolved material was still visible, the tube was placed in a shaker at 37° C. at 150 rpm for at least 30 minutes. […] For the MBEC assay (method 1.3) the solution needs to be diluted to a final concentration of 2 mM in 0.9% saline solution and then further diluted to 1 mM, 0.5 mM, 0.25 mM and 0.125 mM in saline. Those dilutions were added as treatment to the 96 well plates with the grown biofilm (see method 3).
(§2) Frozen aliquots of Staphylococcus epidermis ATCC 35984 and Pseudomonas aeruginosa ATCC 27853 were used to inoculate a tryptic soy agar (TSA) plate and incubated overnight at 37° C. After incubation 3-5 well-isolated colonies with the same morphology were selected from the TSA plate and resuspended in 2 mL 0.9% saline solution with 3-6 glass beads and vortexed. The optical density at 600 nm (OD600) of the bacterial suspension was measured with a spectrophotometer (Evolution™ 201/220 UV-Visible Spectrophotometer, Thermo Fisher Scientific) and diluted to an OD600 of 0.0008, which resembles 10^6 CFU/mL.
(§3) The MIC assay was performed in a flat-bottom 96-microtiter plate. 50 μL of MHB-II was added into columns 2-11, and 100 μL to column 12 for sterility control. 100 μL of the 8 mM test compound solution (method 1) was added to column 1. A two-fold dilution series of the solution in MHB-II was achieved by resuspending 50 μL of the 8 mM solution from column 1 to column 2. This step was repeated until column 10. The respective concentration of Tween 80 and DMSO in column 1 was 2.5%, which is two-fold diluted throughout the plate. 50 μL of the bacterial suspension was added to column 1-11. The microtiter plates were sealed with adhesive polyethylene film for sealing microplates (Diversified Biotech) and incubated for 24 h at 37° C. After incubation the OD was measured at 600 nm with the Varioskan (Thermo Fisher Scientific). […] This assay was repeated three times in three independent experiments.

[2] = system: Pseudomonas aeruginosa ATCC 27853; assay: MIC assay (planktonic growth inhibition, OD600); type: cell-based, P. aeruginosa; conditions: Pseudomonas aeruginosa, ATCC27853, 24 h at 37° C.
Protocol: as §1, §2, §3

[3] = system: Staphylococcus epidermis ATCC 35984 biofilm; assay: MBEC assay (biofilm eradication, CFU log reduction); type: cell-based, S. epidermidis; conditions: 48 h grown biofilm, 20 h treatment, CFU log reduction vs untreated
Protocol: as §1
(§4) Frozen aliquots of Staphylococcus epidermis ATCC 35984 and Pseudomonas aeruginosa ATCC 27853 were used to inoculate 20 mL of Tryptic Soy Broth (TSB) in a 100 mL Erlenmeyer flask at 37° C. and 150 rpm and incubated overnight (Infors). The OD600 of the overnight culture was measured with a spectrophotometer (Evolution™ 201/220 UV-Visible Spectrophotometer, Thermo Fisher Scientific) and diluted to an OD600 of 0.2, which resembles 10^8 CFU/mL. The cell suspension of OD600=0.2 was seeded into a U-bottom-shaped 96 well plates by pipetting 100 μL per well in column 1-11, column 12 was filled with 100 μL medium as sterility control. The 96 well plates were sealed with adhesive polyethylene film for sealing microplates and incubated for 48 h at 37° C. at static conditions. After the biofilm growth phase, 100 μL of treatment solutions (method 1) were added to the vials resulting in treatment concentrations of 1 mM, 0.5 mM, 0.25 mM and 0.125 mM and with the respective concentration of Tween 80 and DMSO each at 0.63%, 0.32%, 0.16% and 0.08%. The same concentration was applied to four different wells of the same bacterial strain, resulting in four replicates for each concentration and strain. The treatment was incubated for 20 h at 37° C. at static conditions. After the treatment the supernatant was carefully removed and the well with the biofilm washed carefully for one time with 200 μL 0.9% saline solution. 200 μL saline solution was added and the biofilm was resuspended thoroughly. When fully homogenized then 20 μL was used for the first dilution in 180 μL 0.9% saline solution, which was prepared in a second plate. This dilution was continued until dilution step 10E−5 and 100 μL of the 10E−4 and 10E−5 dilution plated on a TSA plate. The TSA plates were incubated at 37° C. for 24 h. The colonies on the plates were enumerated, the colony forming units per mL of the dispensed biofilm and averages thereof and the log reduction in comparison with the untreated sample from the same wells plate calculated. Reduction of colony forming units goes hand in hand with the thickness of the biofilm and thus with the number bacteria that are present in the biofilm. Therefore, a significant reduction of colony forming units in the biofilm was defined at the value of log reduction ≥1 or more. This assay was repeated two times in two independent experiments)

[4] = system: Pseudomonas aeruginosa ATCC 27853 biofilm; assay: as above; type: cell-based, P. aeruginosa; conditions: 48 h grown biofilm, 20 h treatment, CFU log reduction vs untreated
Protocol: as §1, §4

[5] = system: cows with a SCC of more as 250.000 cells/ml; assay: In vivo mastitis test: somatic cell count (SCC) in milk after a single oral tablet; parameters: species or system cow; conditions: single oral tablet (10 g), 60 days, FIG. 1
Protocol: Experiments were performed to examine the effect of compounds on the cell count or somatic cell count (SCC) in milk.
Somatic cell counts (SCC) is related to the amount of pathogens that are in the quarter visible for the immune system. The cell count of each cow was measured with the milk production registration (MPR). This MPR is done periodically every 30-40 days at all farms. The Somatic Cell Count (SCC) is a main indicator of milk quality. The majority of somatic cells are leukocytes (white blood cells)—which become present in increasing numbers in milk usually as an immune response to a mastitis-causing pathogen—and a small number of epithelial cells, which are milk-producing cells shed from inside of the udder when an infection occurs.
The SCC data was extracted from milk production registrations (MPRs). MPRs are databases showing all details (e.g. SCC) of the produced milk per individual cow. MPRs of the selected farms were available periodically. SCC is quantified as the number of cells per ml of milk. In general terms: an individual cow with a value for SCC of 100,000 or less indicates an ‘uninfected’ cow and there were no significant production losses due to subclinical mastitis. A threshold SCC above 250,000 indicates infection and counts between 100,000 to 250,000 indicate a high risk of infection.
The experiments were performed on a farm with 90 cows. Examination was performed on cell count with the above described tablets during 60 days.
Cows with a SCC of more as 250.000 cells/ml before treatment were selected for administration of a single tablet.

udder cleft wound = assay: In vivo udder cleft dermatitis test: wound assessment after spray treatment; parameters: species or system cow
Protocol: An example of a biofilm-related disorder is Udder Cleft Dermatitis (UCD), which relates to a chronic wound. In this Example, di-alkyl thiosulfonates, dialkyl thiosulfinates and di-alkyl disulfides were tested for their effect on cows affected by UCD.
Experiments were performed to examine the effect of various sprays containing water (control), a test compound, or a reference compound (CTC spray, which contains chlorotetracycline hydrochloride, and was obtained from Dechra veterinary products).
0.35 mL of the spray was sprayed on an udder cleft wound per treatment. Treatments took place once a day at t=0, at t=3 days and t=6 days. In Table 6, the assessment qualifications that are used in Table 7, are explained.

O=[SH](O)=S.c1ccc(-c2ccccc2)cc1 [Di-phenyl thiosulfonate, phenyl benzene thiosulfonate]
MIC50 ([1]; minimal concentration reducing final OD600 by 50%, read-out: S. epidermidis MIC50): 1000 µM
MIC90 ([1]; minimal concentration reducing final OD600 by 90%, read-out: S. epidermidis MIC90): 2000 µM
MIC50 ([2]; minimal concentration reducing final OD600 by 50%, read-out: P. aeruginosa MIC50): 2000 µM
MIC90 ([2]; minimal concentration reducing final OD600 by 90%, read-out: P. aeruginosa MIC90): 2000 µM
S. epidermidis MBEC mM with log reduction ≥1 [3]: 2 mM
P. aeruginosa MBEC mM with log reduction ≥1 [4]: >4 mM
somatic cell count (SCC) of milk [5]: significantly decreased
inflammation of the udder cleft wound after treatment (udder cleft wound; immediately after the treatment, later infection reduced and wound healed): fast inflammation reduction
Conclusion (effect on udder cleft wound) (udder cleft wound; over 60 days, all cows of the group): Positive effect
